Results on 13 compounds are retold here after patent US9382286B2, “Treatment of EBV and KHSV infection and associated abnormal cellular proliferation” (EMORY UNIVERSITY, priority 2001, dated 2016).

Structures are written as SMILES.

The test system of one data set is HIV-1LAI. Description: Anti-HIV-1 activity in human PBM cells. It is filed as cell-based. The note with it: Human immunodeficiency virus 1, PBMC; read-out: EC50 against human immunodeficiency virus type 1. How it is done: Anti-HIV-1 activity of the compounds was determined in human peripheral blood mononuclear (PBM) cells as described previously (Schinazi R. F., McMillan A., Cannon D., Mathis R., Lloyd R. M. Jr., Peck A., Sommadossi J.-P., St. Clair M., Wilson J., Furman P. A., Painter G., Choi W.-B., Liotta D. C. Antimicrob. Agents Chemother. 1992, 36, 2423; Schinazi, R. F., Sommadossi J.-P., Saalmann V., Cannon D., Xie M.-Y., Hart G., Smith G., Hahn E. Antimicrob. Agents Chemother. 1990, 34, 1061). Stock solutions (20-40 mM) of the compounds were prepared in sterile DMSO and then diluted to the desired concentration in growth medium. Cells were infected with the prototype HIV-1LAI at a multiplicity of infection of 0.01. Virus obtained from the cell supernatant was quantified on day 6 after infection by a reverse transcriptase assay using (rA)n.(dT)12-18 as template-primer. The DMSO present in the diluted solution (<0.1%) had no effect on the virus yield. AZT was included as positive control. The toxicity of some compounds was assessed in Vero, human PBM, and CEM cells, as described previously (Schinazi R. F., Sommadossi J.-P., Saalmann V., Cannon D. L., Xie M.-Y., Hart G. C., Smith G. A., Hahn E. F. Antimicrob Agents Chemother. 1990, 34, 1061-1067). Cycloheximide was included as positive cytotoxic control, and untreated cells exposed to solvent were included as negative controls. […]

In the next data set the target is T1, EBV-TK (Epstein-Barr virus, UniProt P03177).
T1 construct: expressed in transfected cells; host or cells: 143B TK- human osteosarcoma cells and 293 human embryonic kidney cells, stably transfected with pCMV EBV-TK
As to the kind of experiment: Selectivity for EBV-TK: thymidine phosphorylation competition and cytotoxicity assays on EBV-TK-expressing cells. The data set is classed as cell-based. As to conditions: EBV-TK versus human cellular thymidine kinase. As to the method: J. Virol. 74, 684-692). EBV-TK was incubated in an optimized buffer with 15 μM 3H-dT as substrate in a final volume of 100 μL. The enzyme source was either lysate from 143B EBV-TK-expressing cells or purified GST EBV-TK from E. coli. The amount of enzyme was adjusted so that the reaction proceeded linearly for over 60 min. A 10-fold excess (150 μM) of the nucleoside analog being tested was included in the experiment. The reaction was halted at 30 min. by spotting 50 μL of the reaction onto positively charged DE-81 discs (Whatman). After washing four times with 5 mM ammonium formate and once with 95% ethanol, the discs were dried and counted in a scintillation counter. The CPM of the positive control reaction containing no nucleoside analog was taken as 100% activity.
This assay measures the ability of a candidate nucleoside to specifically eliminate EBV-infected cells in the continuous presence of drug. 143B TK-cells lack TK-1. 293 cells contain human TK-1. Therefore, these assays comparatively assess the effects of human TK expression on toxicity. Stock solutions (20-40 mM) of the compounds were prepared in sterile DMSO and then diluted to the desired concentration in growth medium. The cells (143B TK-, 293 EBV-TK or 293 Neo control cells) were cultured in the presence of drug for 5 days, and the media was replaced with fresh media containing drug on day three. Cells were then washed one time with PBS, fixed with 4% formaldehyde/1% methanol and stained with 1% crystal violet in 20% ethanol for visualization of the cell monolayer. […] Cultures with this designation often have media that is still “pink,” indicating a slowdown of cellular metabolism. Identical samples are assessed in triplicate.
Stock solutions (20-40 mM) of the compounds were prepared in sterile DMSO and then diluted to the desired concentration in growth medium. Exponentially growing cells were incubated with the nucleoside in question for 24 h, plated in 24-well plates at 50 viable cells per well and incubated for 7-9 days in the absence of drug. Cells were fixed and stained as above and colonies were counted. A nucleoside can cause a decrease in the number of colonies, which is an indirect indication of the number of cells able to survive and to replicate after the initial exposure to drug.
Two cell systems are employed to determine the toxicity of each nucleoside. The information obtained depends upon the system used. In 143B TK-cells, cytotoxic drugs that are dependent upon phosphorylation by a TK are easily identified. 143B TK-cells expressing either EBV-TK or hTK1 permit assessment of whether either enzyme independently may cause a drug to become cytotoxic. Thus, drugs that can be activated by hTK1, which would cause non-specific cytotoxicity, are readily identified. One drawback is that these cells are grown in HAT media that “forces” nucleosides through the TK salvage pathway (EBV-TK or hTK1). A false positive may arise if a nucleoside out-competes dT for phosphorylation such that sufficient amounts of dT are not available for cellular replication. This toxicity may not be present or may be reduced in a cell that has the synthetic as well as salvage pathways available for dTTP production. For this reason, the 293 system was developed. These cells have endogenous hTK1 and EBV-TK is maintained by selection in G418. Thus, the normal hTK1 salvage pathway is operational, and nucleosides can be expected to flux through the cells normally. Drugs are incubated with 293 cells transformed with a neomycin (Neo) expressing plasmid (Neo control) and with cells transfected with the same plasmid also expressing EBV-TK. A nucleoside selectively activated by EBV-TK should cause toxicity on 293 EBV-TK and not on 293 Neo control cells. In both the 143B and 293 cell systems, toxicity is evaluated by cell survival. The cells are cultured in the presence of drug for 5 days, and the media replaced with fresh media containing drug on day 3. […]

T1 sequence (P03177 whole entry): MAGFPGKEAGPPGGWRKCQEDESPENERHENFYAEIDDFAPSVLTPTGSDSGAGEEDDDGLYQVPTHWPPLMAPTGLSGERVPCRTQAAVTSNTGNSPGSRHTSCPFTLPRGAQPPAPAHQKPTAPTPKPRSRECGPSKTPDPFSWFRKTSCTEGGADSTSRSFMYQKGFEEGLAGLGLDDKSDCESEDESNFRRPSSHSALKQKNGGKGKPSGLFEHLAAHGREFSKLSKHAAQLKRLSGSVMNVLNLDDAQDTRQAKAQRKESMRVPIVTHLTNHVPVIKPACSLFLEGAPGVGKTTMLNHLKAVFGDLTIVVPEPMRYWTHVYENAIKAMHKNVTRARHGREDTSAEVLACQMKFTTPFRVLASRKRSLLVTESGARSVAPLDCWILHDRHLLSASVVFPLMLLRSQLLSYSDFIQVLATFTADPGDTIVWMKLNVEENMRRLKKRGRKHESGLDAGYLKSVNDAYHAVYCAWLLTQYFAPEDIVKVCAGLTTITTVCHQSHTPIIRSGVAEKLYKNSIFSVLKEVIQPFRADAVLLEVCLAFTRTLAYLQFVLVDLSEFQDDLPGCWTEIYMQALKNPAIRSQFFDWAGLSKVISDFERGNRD

`C#Cc1cn([C@H]2CC(O)[C@@H](CO)O2)c(=O)[nH]c1=O` (stereo partly drawn) [5-ethynyl-dU, β-D-2′-deoxy-5-ethynyluridine]: the EC50 in the data set with HIV-1LAI turned out to be 610 nM.
Turning to `C=Cc1cn([C@H]2CC(O)[C@@H](CO)O2)c(=O)[nH]c1=O` (stereo partly drawn) [5-vinyl-dU, β-D-2′-deoxy-5-vinyluridine], on EBV-TK, the “selectivity for EBV-TK (specifically phosphorylated and converted into a cytotoxic agent by EBV-TK)” value is reported as “selectivity for EBV-TK”.
On the same count and under the same terms, the value for `O=c1[nH]c(=O)n([C@@H]2CO[C@H](CO)O2)cc1-c1ccco1` [(2S,4S)-5-(2-furanyl)-1-[2-(hydroxymethyl)-1,3-dioxolan-4-yl]uracil] was “selectivity for EBV-TK”; that for `O=c1[nH]c(=O)n([C@@H]2CO[C@H](CO)O2)cc1-c1cccs1` [(2S,4S)-5-(2-thienyl)-1-[2-(hydroxymethyl)-1,3-dioxolan-4-yl]uracil] was “selectivity for EBV-TK”.
The same measure, in the same setting: the value for `O=c1[nH]c(=O)n([C@@H]2CO[C@H](CO)O2)cc1/C=C/CO` [(2S,4S)-5-(3-hydroxypropenyl)-1-[2-(hydroxymethyl)-1,3-dioxolan-4-yl]uracil] was “selectivity for EBV-TK”.
Still for that read-out and setting: the value for `O=c1[nH]c(=O)n([C@@H]2CO[C@H](CO)O2)cc1-c1ccc(Br)o1` [(2S,4S)-5-(5-bromo-2-furanyl)-1-[2-(hydroxymethyl)-1,3-dioxolan-4-yl]uracil] was “selectivity for EBV-TK”; that for `O=c1[nH]c(=O)n([C@@H]2CO[C@H](CO)O2)cc1-c1ccc(Br)s1` [(2S,4S)-5-(5-bromthien-2-yl)-1-[2-(hydroxymethyl)-1,3-dioxolan-4-yl]uracil] was “selectivity for EBV-TK”; that for `O=c1[nH]c(=O)n([C@H]2CC(O)[C@@H](CO)O2)cc1CO` (stereo partly drawn) [β-D-2′-deoxy-5-(hydroxymethyl)uridine] was “selectivity for EBV-TK”.
Take `O=C(O)/C=C/c1cn([C@H]2CC(O)[C@@H](CO)O2)c(=O)[nH]c1=O` (stereo partly drawn) [β-D-5-E-(2-carboxyvinyl)-2′-deoxyuridine]: the “selectivity for EBV-TK (specifically phosphorylated and converted into a cytotoxic agent by EBV-TK)” value at EBV-TK was “selectivity for EBV-TK”.
The same measure, in the same setting: the value for `CCCCc1cn([C@H]2CC(O)[C@@H](CO)O2)c(=O)[nH]c1=O` (stereo partly drawn) [β-D-5-butyl-2′-deoxyuridine] was “selectivity for EBV-TK”.
On the same count and under the same terms, the value for `O=c1[nH]c(=O)n([C@@H]2CC(O)[C@H](CO)O2)cc1I` (stereo partly drawn) [β-L-2′-deoxy-5-iodouridine] was “selectivity for EBV-TK”; that for `C=Cc1cn([C@@H]2CC(O)[C@H](CO)O2)c(=O)[nH]c1=O` (stereo partly drawn) [β-L-2′-deoxy-5-vinyluridine] was “selectivity for EBV-TK”.
The same measure, in the same setting: the value for `C=Cc1cn([C@H]2O[C@@H](CO)C(O)C2O)c(=O)[nH]c1=O` (stereo partly drawn) [β-L-5-vinyluridine] was “selectivity for EBV-TK”.

For orientation: EC50 means the concentration that produces a half-maximal response.
